Measurements as given in patent US20170305922A1, “CARM1 INHIBITORS AND USES THEREOF” (Epizyme, Inc., priority 2014, published 2017).
pIC50: −log10 of the molar value.

Columns and labels:
Human CARM1 (PRMT4) = target: T1, Human CARM1 (PRMT4) (Homo sapiens, UniProt Q86X55); test: CARM1 enzyme assay on peptide substrates (3H-SAM Flashplate); details: Biochemical assay; CARM1 0.25 nM, 3H-SAM 30 nM, peptide 250 nM; read-out: Biochem IC50
T1 construct: Flag-CARM1-His was eluted with 200 ug/ml FLAG peptide in buffer A; made in house; host or cells: HEK 293F cells infected with recombinant baculovirus (pFastBacMam)
T1 sequence (Q86X55 1-585 isoform Q86X55-1): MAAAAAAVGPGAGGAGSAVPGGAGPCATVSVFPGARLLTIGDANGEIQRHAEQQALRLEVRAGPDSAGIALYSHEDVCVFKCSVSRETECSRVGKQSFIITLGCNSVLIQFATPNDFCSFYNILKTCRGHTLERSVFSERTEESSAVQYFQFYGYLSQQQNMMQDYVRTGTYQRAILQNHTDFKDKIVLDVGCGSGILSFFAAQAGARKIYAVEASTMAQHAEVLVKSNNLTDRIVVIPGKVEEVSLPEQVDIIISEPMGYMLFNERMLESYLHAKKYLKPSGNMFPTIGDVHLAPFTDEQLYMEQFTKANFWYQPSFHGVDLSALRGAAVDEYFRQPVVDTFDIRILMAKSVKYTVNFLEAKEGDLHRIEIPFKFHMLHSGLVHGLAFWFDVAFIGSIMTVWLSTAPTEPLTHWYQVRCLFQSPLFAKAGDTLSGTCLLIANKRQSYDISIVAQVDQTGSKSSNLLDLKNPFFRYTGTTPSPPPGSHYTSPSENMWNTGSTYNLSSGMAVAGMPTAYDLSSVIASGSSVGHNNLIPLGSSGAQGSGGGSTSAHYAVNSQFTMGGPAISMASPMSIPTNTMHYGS

[1] = tested on: asymmetric di-methyl PABP1 in RKO cells; test: RKO methylation assay: In Cell Western (ICW) for asymmetric di-methyl PABP1 (PABP1me2a); details: Cellular-based (PABP1me2a) ICW (In Cell Western) assay
Summary of the method: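 In-cell western on compound-exposed RKO cells (48 hours): asymmetric di-methyl PABP1 detected by antibody at 800 nm, DNA content by DRAQ5 at 700 nm. Percent inhibition from signal ratios against DMSO (minimum) and 20 μM reference compound (maximum) wells; IC50 curves fitted from triplicates.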

Row | pIC50 (Human CARM1 (PRMT4)) | pIC50 ([1]; Homo sapiens, RKO, 48 h) | pIC50 ([1]; 48 hours) | Compound
1 | 8.11 | 5.23 | – | CNC[C@@H](O)COc1ccc(Cl)c(-c2nc(-c3c(C)noc3C)c(C)c(N3Cc4cn(C(CO)CO)nc4C3)n2)c1 [Example 114]
2 | 8.45 | 7.35 | – | CNC[C@@H](O)COc1ccc(Cl)c(-c2nc(-c3c(C)c(Br)nn3C)c(C)c(N3CC4(CC(OC(C)C)C4)C3)n2)c1 [Example 275]
3 | 8.64 | 6.85 | – | CNC[C@@H](O)COc1ccc(Cl)c(-c2nc(-c3c(C)c(C#N)nn3C)c(C)c(N3Cc4cncnc4C3)n2)c1 [Example 346]
4 | 8.48 | 6.63 | – | CC[C@@H]1CN(c2nc(-c3cc(OC[C@H](O)CNC)ccc3Cl)nc(-c3c(C)noc3C)c2C)CCN1S(C)(=O)=O [Example 202]
5 | 9.22 | 6.89 | – | CNC[C@@H](O)COc1ccc(Cl)c(-c2nc(-c3c(C)noc3C)c(C)c(N3Cc4nccc(N(C)C)c4C3)n2)c1 [Example 209]
6 | 8.14 | 7.18 | – | CNC[C@@H](O)COc1ccc(Cl)c(-c2nc(-c3c(C)noc3C)c(C)c(N3Cc4cn(CCOC)nc4C3)n2)c1 [Example 112]
7 | 7.51 | 5.74 | – | CNC[C@@H](O)COc1ccc(Cl)c(-c2nc(-c3c(C)noc3C)c(C)c(N3CC4(CCN(C(=O)OC)CC4)C3)n2)c1Cl [Example 338]
8 | 8.72 | 7.42 | – | CNC[C@@H](O)COc1ccc(Cl)c(-c2nc(-c3c(C)noc3C)c(C)c(N3Cc4ccc(OC)nc4C3)n2)c1 [Example 170]
9 | 7.89 | 6.15 | – | CNC[C@@H](O)COc1ccc(Cl)c(-c2nc(-c3c(Cl)cnn3C)c(C)c(N3Cc4cncnc4C3)n2)c1 [Example 344]
10 | 8.74 | 7.20 | – | CNC[C@@H](O)COc1ccc(Cl)c(-c2nc(-c3c(C)noc3C)c(C)c(N3Cc4nccc(OC)c4C3)n2)c1 [Example 236]
11 | 8.41 | 7.51 | – | CNC[C@@H](O)COc1ccc(Cl)c(-c2nc(-c3c(C)noc3C)c(C)c(N3Cc4cnc(SC)nc4C3)n2)c1 [Example 117]
12 | 8.40 | 6.66 | – | CNC[C@@H](O)COc1ccc(Cl)c(-c2nc(-c3c(C)noc3C)c(C)c(N3CC4(CCC4(F)F)C3)n2)c1 [Example 250]
13 | 8.68 | 7.27 | – | CNC[C@@H](O)COc1ccc(Cl)c(-c2nc(-c3c(C)noc3C)c(C)c(N3CC4(C3)CN(C3CC3)C4)n2)c1 [Example 96]
14 | 8.55 | 7.40 | – | CNC[C@@H](O)COc1ccc(Cl)c(-c2nc(-c3c(C)c(Br)nn3C)c(C)c(N3CC4(CC(OCCC#N)C4)C3)n2)c1 [Example 297]
15 | 8.33 | 7.24 | – | CNC[C@@H](O)COc1ccc(Cl)c(-c2nc(-c3c(C)noc3C)c(C)c(N3CC4(CCC(OCC(F)F)CC4)C3)n2)c1 [Example 172]
16 | 8.19 | 6.76 | – | CNC[C@@H](O)COc1ccc(Cl)c(-c2nc(-c3c(C)noc3C)c(C)c(N3CC4(CC(C#N)C4)C3)n2)c1 [Example 306]
17 | 8.21 | 6.31 | – | CNC[C@@H](O)COc1ccc(Cl)c(-c2nc(-c3c(C)noc3C)c(C)c(N3CC(F)(C(=O)N4CCC4)C3)n2)c1 [Example 184]
18 | 8.37 | 7.54 | – | CNC[C@@H](O)COc1ccc(Cl)c(-c2nc(-c3c(C)c(Cl)nn3C)c(C)c(N3CC4(CN(CC(F)(F)F)C4)C3)n2)c1 [Example 233]
19 | 8.21 | 6.80 | – | CNC[C@@H](O)COc1ccc(Cl)c(-c2nc(-c3c(C)noc3C)c(C)c(N3Cc4cn(C5COC5)nc4C3)n2)c1 [Example 126]
20 | 8.06 | 5.94 | – | CNC[C@@H](O)COc1ccc(Cl)c(-c2nc(-c3c(C)noc3C)c(C)c(N3Cc4cn(CC(=O)N(C)C)nc4C3)n2)c1 [Example 113]
21 | 8.14 | 7.08 | – | CNC[C@@H](O)COc1ccc(Cl)c(-c2nc(-c3c(C)noc3C)c(C)c(N3CC4(CCN(C(=O)N(C)C)CC4)C3)n2)c1 [Example 33]
22 | 8.32 | 6.57 | – | CCn1ncc(Cl)c1-c1nc(-c2cc(OC[C@H](O)CNC)ccc2Cl)nc(N2Cc3cncnc3C2)c1C [Example 76]
23 | 8.19 | 5.55 | – | CNC[C@@H](O)COc1ccc(Cl)c(-c2nc(-c3c(C)noc3C)c(C)c(N3Cc4cnn(CC(=O)N(C)C)c4C3)n2)c1 [Example 109]
24 | 8.27 | 6.38 | – | CNC[C@@H](O)COc1ccc(Cl)c(-c2nc(-c3c(C)noc3C)c(C)c(N3CCN(C(=O)OC)CC3)n2)c1 [Example 216]

Row | pIC50 (Human CARM1 (PRMT4)) | pIC50 ([1]; Homo sapiens, RKO, 48 h) | pIC50 ([1]; 48 hours) | Compound
25 | 9.10 | 7.43 | – | CNC[C@@H](O)COc1ccc(Cl)c(-c2nc(-c3c(Br)cnn3C)c(C)c(N3Cc4ccc(N5CCC5)nc4C3)n2)c1 [Example 243]
26 | 8.40 | 7.36 | – | CNC[C@@H](O)COc1ccc(Cl)c(-c2nc(-c3c(C)c(Br)nn3C)c(C)c(N3CC4(CC(OC)C4)C3)n2)c1 [Example 256]
27 | 8.39 | 6.92 | – | CNC[C@@H](O)COc1ccc(Cl)c(-c2nc(-c3c(C)noc3C)c(C)c(N3CC4(CCN(C(=O)OCC(F)F)C4)C3)n2)c1 [Example 180]
28 | 8.26 | 6.89 | – | CNC[C@@H](O)COc1ccc(Cl)c(-c2nc(-c3c(C)noc3C)c(C)c(N3CC4(CN(C(=O)OCC(F)(F)F)C4)C3)n2)c1 [Example 219]
29 | 9.10 | 6.45 | – | CNC[C@@H](O)COc1ccc(Cl)c(-c2nc(-c3c(C)noc3C)c(C)c(N3CC4(CC(N5CC(OC)C5)C4)C3)n2)c1 [Example 269]
30 | 8.10 | 7.23 | – | CCc1onc(C)c1-c1nc(-c2cc(OC[C@H](O)CNC)ccc2Cl)nc(N2CC3(CN(CC(F)(F)F)C3)C2)c1C [Example 227]
31 | 8.25 | 5.78 | – | CNC[C@@H](O)COc1ccc(Cl)c(-c2nc(-c3c(C#N)cnn3C)c(C)c(N3Cc4cccnc4C3)n2)c1 [Example 348]
32 | 8.60 | 7.59 | – | CNC[C@@H](O)COc1ccc(Cl)c(-c2nc(-c3c(C)c(Cl)nn3C)c(C)c(N3Cc4cnc(N(C)C)nc4C3)n2)c1 [Example 168]
33 | 8.11 | 7.34 | – | CNC[C@@H](O)COc1ccc(Cl)c(-c2nc(-c3c(C)noc3C)c(C)c(N3Cc4cn(C)nc4C3)n2)c1 [Example 129]
34 | 8.43 | 6.94 | – | CNC[C@@H](O)COc1ccc(Cl)c(-c2nc(-c3c(C)noc3C)c(C)c(N3Cc4cn(CC(F)F)nc4C3)n2)c1 [Example 27]
35 | 8.62 | 7.59 | – | CCN(C)c1ncc2c(n1)CN(c1nc(-c3cc(OC[C@H](O)CNC)ccc3Cl)nc(-c3c(C)noc3C)c1C)C2 [Example 157]
36 | 8.23 | – | 7.34 | CNC[C@@H](O)COc1ccc(Cl)c(-c2nc(-c3c(C)noc3C)c(C)c(N3CC4(CC(OC(C)C)C4)C3)n2)c1 [Example 260]
37 | 8.70 | 7.41 | – | CCN(C)c1ncc2c(n1)CN(c1nc(-c3cc(OC[C@H](O)CNC)ccc3Cl)nc(-c3c(C)c(Cl)nn3C)c1C)C2 [Example 159]
38 | 7.22 | < 4.70 | – | CNC[C@@H](O)COc1ccc(Cl)c(-c2nc(-c3c(C)noc3C)c(Cl)c(N3Cc4cnn(C)c4C3)n2)c1 [Example 11]
39 | 8.29 | 6.92 | – | CCc1onc(C)c1-c1nc(-c2cc(OC[C@H](O)CNC)ccc2Cl)nc(N2CC3(CCN(C(=O)OC)CC3)C2)c1C [Example 179]
40 | 8.24 | 7.27 | – | CNC[C@@H](O)COc1ccc(Cl)c(-c2nc(-c3c(C)noc3C)c(C)c(N3CC4(CC(N5CC(F)(F)C5)C4)C3)n2)c1 [Example 279]
41 | 8.06 | 6.74 | – | CNC[C@@H](O)COc1ccc(Cl)c(-c2nc(-c3c(C)cnn3C)c(C)c(N3CC4(CCN(C(=O)OC)CC4)C3)n2)c1 [Example 80]
42 | 8.59 | 6.42 | – | CNC[C@@H](O)COc1ccc(Cl)c(-c2nc(-c3c(C)noc3C)c(C)c(N3Cc4cnc(NCCO)nc4C3)n2)c1 [Example 197]
43 | 7.90 | 6.62 | – | CNC[C@@H](O)COc1ccc(Cl)c(-c2nc(-c3c(C)noc3C)c(C)c(N3CC4(CCN(C(=O)N(C)C)C4)C3)n2)c1 [Example 48]
44 | 8.17 | 6.48 | – | CNC[C@@H](O)COc1ccc(Cl)c(-c2nc(-c3c(C)noc3C)c(C)c(N3CCN(CC(F)F)CC3)n2)c1 [Example 224]
45 | 7.96 | 6.40 | – | CNC[C@@H](O)COc1ccc(Cl)c(-c2nc(-c3c(C)noc3C)c(C)c(N3CC4(CCC(S(C)(=O)=O)CC4)C3)n2)c1 [Example 97]
46 | 8.35 | 7.57 | – | CNC[C@@H](O)COc1ccc(Cl)c(-c2nc(-c3c(C)noc3C)c(C)c(N3Cc4cc(C)nc(C)c4C3)n2)c1 [Example 102]
47 | 7.01 | 6.55 | – | CNC[C@@H](O)COc1ccc(Cl)c(-c2nc(C#CC3CCN(C(=O)OC)CC3)c(C)c(-c3c(C)noc3C)n2)c1 [Example 86]
